From patent US10716768B2, “Method for treating abnormal B-amyloid aggregation mediated diseases” (NATIONAL TAIWAN NORMAL UNIVERSITY, priority 2016, dated 2020) come the findings set out here.

Series [1] can be described thus: Solubility test in cell culture medium. Particulars: plasma or biological fluid, vortex mixing, centrifugation five minutes at 13,000 g, read-out: solubility in cell culture medium (completely soluble up to). It counts as physicochemical. The procedure:
This experiment was to test the solubility of compound (I-1), compound (I-2), compound (I-3), compound (I-4), and compound (I-5) in cell culture medium. After vortex mixing and centrifugation for five minutes at 13,000 g, the compounds were completely soluble in the cell culture medium up to 100 μM.

Series [2] is described as follows: Cytotoxicity of induced cells, propidium iodide staining and flow cytometer. In kind it is cell-based, human. Particulars: human.
A short description of series [3]: MTT cytotoxicity test, un-induced cells. It counts as cell-based, human. Particulars: human. The procedure: (§1) This experiment was to test the toxicity of compounds (I-1), (I-2), (I-3), (I-4), and (I-5) to un-induced Tet-On Aβ-GFP Ftp-In 293 and SH-SY5Y cells. Un-induced Tet-On Aβ-GFP Flp-In 293 and SH-SY5Y cells were treated with compounds (I-1), (I-2), (I-3), (I-4), and (I-5) in different concentrations from 0.1 to 100 μM for 24 hours, followed by conducting MTT assay to test the cytotoxicity of the compounds. The experiment also tested the cytotoxicity of licochalcone A (0.1-100 μM) and curcumin (1-10 μM) to the un-induced Tet-On Aβ-GFP Flp-In 293 and SH-SY5Y cells. In the experiment, the relative cellular survival rate of untreated cells was 100%, the half maximal inhibitory concentration (IC50) of each compound was calculated by using interpolation, and the sample number of each group was n=3.

The test system of series [4] is Aβ aggregation in Tet-On Aβ-GFP Flp-In 293 cells. Kind of series: Inhibition of abnormal β-amyloid aggregation test (GFP fluorescence, high-content analysis). In kind it is cell-based, human. Particulars: for GFP fluorescence: untreated 100%. The procedure:
GFP fluorescence was used to reflect Aβ aggregation status as Aβ aggregated to cause the fused GFP misfolded, and thus cause the reduction of fluorescence on Aβ-GFP expressing cells. Inhibition of Aβ aggregation may improve GFP misfolding and lead to increased fluorescence on Aβ-GFP expressing cells. […] Then doxycycline (Dox) (2 μg/mL) was added to the cells for 64 hours to induce the Aβ-GFP expression, and GFP fluorescence was assessed by a high-content analysis (HCA) system (ImageXpressMICRO, available from Molecular Devices). The experiment also tested the inhibition effect of Aβ aggregation by curcumin (1-10 μM) and licochalcone A (0.001-100 μM). In the experiment, the amount of fluorescence measured in the untreated group (untreated with compounds) was 100%, and the sample number of each group was n=3.

Series [5] relates to Tet-On Aβ-GFP Flp-In 293 cells. Kind of series: Cytotoxicity of induced cells, propidium iodide staining and flow cytometer. In kind it is cell-based, human. Particulars: induced cells, PI staining, flow cytometer (FIG. 3C).
For series [6], the system named is un-induced Tet-On Aβ-GFP Flp-In 293 and SH-SY5Y cells. As to the kind of experiment: MTT cytotoxicity test, un-induced cells. In kind it is cell-based, human. Particulars: MTT, 24 hours; range over un-induced Flp-In 293 (FIG. 1A) and SH-SY5Y (FIG. 1B) cells. The procedure: as §1
The mark [7] stands for this setting: 0.001-1 μM, cell survival rate more than 80%.
The mark [8] stands for this setting: 0.001-10 μM, cell survival rate more than 80%.

Each structure is given as a SMILES string.

As to `COc1ccc(C(=O)/C=C/c2cc(Br)ccc2O)cc1` [Compound (I-1)], the solubility in series [1] was not below 100 µM. Moreover, 47.7 µM corresponded to half-maximal inhibition in series [2] (IC50). Besides, in series [3], the IC50 at 24 h lay within 8 to 51 µM. Further, the GFP fluorescence in series [4] (0.001-0.1 μM, cell survival rate more than 80%) is on record as 103-111%.
Take `COc1ccc(O)c(/C=C/C(=O)c2ccccc2)c1` [Compound (I-2)]: the solubility in series [1] was not below 100 µM. Moreover, the midpoint of inhibition in series [2], the IC50, lay at 57.5 µM. The molecule further yielded an IC50 at 24 h in series [3] of 10 to 51 µM. Also, the GFP fluorescence in series [4] (setting [7]) is on record as 105-112%.
As for `Cc1ccc(/C=C/C(=O)c2c(O)c3ccccc3oc2=O)cc1` [Compound (I-3)], in series [1], the solubility is not below 100 µM. The molecule also yielded an IC50 in series [2] of 80.6 µM. The molecule further returned an IC50 at 24 h in series [3] not below 55 µM. Moreover, the GFP fluorescence in series [4] (setting [8]) is listed as 103-117%.
For the molecule `COc1cccc(/C=C/C(=O)c2ccc(O)cc2)c1O` [Compound (I-4)], in series [1], the solubility is not below 100 µM. In series [2], this molecule registered a concentration for half-maximal inhibition (IC50) of 60.9 µM. This molecule also yielded an IC50 at 24 h in series [3] of 45 to 71 µM. Moreover, the GFP fluorescence in series [4] (0.01-1 μM, cell survival rate more than 80%) is recorded as 102-105%.
In the case of `O=C(c1ccccc1)c1cc2c(O)cccc2oc1=O` [Compound (I-5)], the solubility in series [1] is not below 100 µM. The molecule also yielded an IC50 in series [2] of 95.1 µM. Besides, in series [3], the IC50 at 24 h is more than 100 µM. Besides, the GFP fluorescence in series [4] (setting [8]) was 107-125%.
In series [3], `COc1cc(/C=C/C(=O)CC(=O)/C=C/c2ccc(O)c(OC)c2)ccc1O` [curcumin, reference compound] gave an IC50 at 24 h of more than 10 µM. In series [4] (curcumin 2.5 μM and 5 μM), the cell number entry is given as “more than 80 % of untreated cells” and the GFP fluorescence was 107-120%.
Turning to `C=CC(C)(C)c1cc(/C=C/C(=O)c2ccc(O)cc2)c(OC)cc1O` [licochalcone A, reference compound], the IC50 in series [5] was 62.3 µM; in series [6], 47 to 51 µM. Besides, the GFP fluorescence in series [4] (setting [7]) was 105-115%.
